Values quoted from earlier work as cited in patent publication US20080314115A1, “Compliance Apparatus” (Zenics Limited, priority 2005, published 2008).

Settings: after disulfiram dose

Q: For `S=C=S` [carbon disulphide], which breath elimination half-life is on record?
A: Its breath elimination half-life is 13.3 h.
